Results on 24 compounds are retold here after patent US4889848A, “Tricyclic pyridine derivatives” (Hoffmann-La Roche Inc., priority 1988, dated 1989).

Read-outs that look alike come from different tables or passages of the source.

A word on the ED50: it is the dose at which the effect has come halfway, by size or by number of responders. The LD50 is the dose at which mortality reaches 50%. Low values mean greater toxicity, high ones lower toxicity.

In data set [1] the test system is spasmodic seizures caused by pentetrazole. Nature of the data set: antipentetrazole test (protection from pentetrazole-induced seizures). It is filed as in vivo, female rats. As to conditions: Rattus norvegicus, po, read-out: ED50 (dosage which protects 50% of the experimental animals from the spasmodic seizures caused by pentetrazole). The protocol:
As mentioned earlier, the compounds of formula I have valuable pharmacological properties.
(§1) In this animal test, the compound under investigation is adminstered orally or intravenously to female rats and 30 minutes later there are administered intraperitioneally 120 mg/kg of pentetrazole, which causes emprosthotonus and tonic stretchings of the fore and/or hind limbs in unprotected animals 1-4 minutes after the injection. Ten (10) experimental animals are used per dosage of test substance. After counting the protected experimental animals, the ED50 is determined according to the […]. The ED50 is that dosage which protects 50% of the experimental animals from the spasmodic seizures caused by pentetrazole. The results which have been obtained with representative members of the class of compound defined by formula I in the experiment described previously are compiled in the following Table. Moreover, the Table contains data concerning the acute toxicity (LD50) of some of the compounds of formula I in mg/kg in the case of single oral administration to mice.

The nature of data set [2]: acute toxicity, single oral administration to mice. As to conditions: mouse, in vivo, p.o. The protocol:
as §1

[3] abbreviates: female rats, compound given 30 minutes before 120 mg/kg pentetrazole intraperitoneally, 10 animals per dosage.

As to `O=C(c1cc(-c2ccccc2)c(=O)n2c1-c1cc(Cl)ccc1CC2)N1CCC(O)CC1` [B, 1-[(10-Chloro-6,7-dihydro-4-oxo-3-phenyl-4H-benzo[a]quinolizin-1-yl)carbonyl]-4-piperidinol], the ED50 in data set [1] (setting [3]) was 5.4 mg/kg. The compound also returned an LD50 in data set [2] greater than 5000 mg/kg.

On to `O=C(OCc1cc(-c2ccccc2)c(=O)n2c1-c1sccc1CC2)N1CCOCC1` [C, (4,5-Dihydro-7-oxo-8-phenyl-7H-thieno[2,3-a]quinolizin-10-yl)methyl 4-morpholinecarboxylate], for which the ED50 in data set [1] is 15.9 mg/kg.

As to `COCCNC(=O)c1cc(-c2ccccc2)c(=O)n2c1-c1cc(Cl)ccc1CC2` [Compound A, 10-Chloro-6,7-dihydro-N-(2-methoxyethyl)-4-oxo-3-phenyl-4H-benzo[a]quinolizine-1-carboxamide], the median effective dose (ED50) in data set [1] amounted to 2.6 mg/kg. In data set [2], the LD50 is greater than 5000 mg/kg.

Turning to `CC1CN(C(=O)c2cc(-c3ccccc3)c(=O)n3c2-c2cc(Cl)ccc2CC3)CC(C)O1` (centres unmarked) [D, 4-[(6,7-Dihydro-4-oxo-3-phenyl-10-chloro-4H-benzo[a]quinolizin-1-yl)carbonyl]-2,6-dimethylmorpholine], the ED50 in data set [1] is 1.2 mg/kg. Besides, the LD50 in data set [2] was greater than 5000 mg/kg.

On to `O=C(c1cc(-c2ccccc2)c(=O)n2ccc3ccsc3c12)N1CCC[C@H]1CO` [E, (S)-1-[(7-oxo-8-phenyl-7H-thieno[2,3-a]quinolizin-10-yl)carbonyl]-2-pyrrolidinemethanol], for which the ED50 in data set [1] came out at 3.5 mg/kg. In data set [2], the LD50 was 625 mg/kg.

For `COC[C@@H]1CCCN1C(=O)c1cc(-c2ccccc2)c(=O)n2ccc3ccsc3c12` [F, (S)-2-methoxymethyl-1-[(7-oxo-8-phenyl-7H-thieno[2,3-a]quinolizin-10-yl)carbonyl]pyrrolidine], the ED50 in data set [1] amounted to 2.8 mg/kg. This compound yielded an LD50 in data set [2] of 5000 mg/kg.

`COC1CCN(C(=O)c2cc(-c3ccccc3)c(=O)n3ccc4ccc(Cl)cc4c23)C1` (centres unmarked) [G, 1-[(10-chloro-4-oxo-3-phenyl-4H-benzo[a]quinolizin-1-yl)carbonyl]-3-methoxypyrrolidine]: the ED50 in data set [1] came out at 0.12 mg/kg. Also, in data set [2], the LD50 is 2500 mg/kg.

`O=C(c1cc(-c2ccccc2)c(=O)n2ccc3ccc(Cl)cc3c12)N1CCC[C@H]1CO` [H, (S)-1-[(10-chloro-4-oxo-3-phenyl-4H-benzo[a]quinolizin-1-yl)carbonyl]-2-pyrrolidinemethanol]: the median effective dose (ED50) in data set [1] was determined as 1.3 mg/kg. The compound also gave an LD50 in data set [2] greater than 3000 mg/kg.

With `C[C@@H]1CN(C(=O)c2cc(-c3ccccc3)c(=O)n3c2-c2sccc2CC3)C[C@H](C)O1` [I, cis-4-[(4,5-dihydro-7-oxo-8-phenyl-7H-thieno[2,3-a]-quinolizin-10-yl)carbonyl]-2,6-dimethylmorpholine], the ED50 in data set [1] (setting [3]) turned out to be 5.9 mg/kg. Further, the LD50 in data set [2] is greater than 5000 mg/kg.

With `COC1CCN(C(=O)c2cc(-c3ccccc3)c(=O)n3c2-c2cc(Cl)ccc2CC3)CC1` [K], the ED50 in data set [1] turned out to be 0.56 mg/kg. In data set [2], the LD50 was greater than 5000 mg/kg.

With `COC1CCN(C(=O)c2cc(-c3ccccc3)c(=O)n3ccc4ccc(Cl)cc4c23)CC1` [L, 1-[(10-Chloro-3-phenyl-4-oxo-4H-benzo[a]quinolizin-1-yl)carbonyl]-4-methoxypiperidine], the ED50 in data set [1] was 0.22 mg/kg. The LD50 in data set [2] was greater than 5000 mg/kg.

As to `CCN(CCOC)C(=O)c1cc(-c2ccccc2)c(=O)n2ccc3ccsc3c12` [M, N-ethyl-N-(2-methoxyethyl)-7-oxo-8-phenyl-7H-thieno[2,3-a]quinolizine-10-carboxamide], the ED50 in data set [1] was determined as 5 mg/kg. In addition, the LD50 in data set [2] is 5000 mg/kg.

For `COCCN(C)C(=O)c1cc(-c2ccccc2)c(=O)n2ccc3ccsc3c12` [N, N-(2-Methoxyethyl)-N-methyl-7-oxo-8-phenyl-7H-thieno[2,3-a]quinolizine-10-carboxamide], the ED50 in data set [1] was 0.97 mg/kg. In data set [2], this compound registered an LD50 of 625 mg/kg.

In the case of `COC[C@H]1CCCN1C(=O)c1cc(-c2ccccc2)c(=O)n2ccc3ccsc3c12` [O, (R)-2-(methoxymethyl)-1-[(7-oxo-8-phenyl-7H-thieno[2,3-a]quinolizin-10-yl)carbonyl]pyrrolidine], the ED50 in data set [1] was 0.49 mg/kg. In data set [2], this compound displayed an LD50 of 5000 mg/kg.

As for `COC1CCN(C(=O)c2cc(-c3ccccc3)c(=O)n3c2-c2cc(Cl)ccc2CC3)C1` (centres unmarked) [P, 1-[(10-Chloro-6,7-dihydro-4-oxo-3-phenyl-4H-benzo[a]quinolizin-1-yl)carbonyl]-3-methoxypyrrolidine], in data set [1], the ED50 was 0.31 mg/kg. In data set [2], this compound gave an LD50 greater than 5000 mg/kg.

Take `CCOC1CCN(C(=O)c2cc(-c3ccccc3)c(=O)n3c2-c2cc(Cl)ccc2CC3)C1` (centres unmarked) [Q, 1-[(10-Chloro-6,7-dihydro-4-oxo-3-phenyl-4H-benzo[a]quinolizin-1-yl)carbonyl]-3-ethoxypyrrolidine]: the ED50 in data set [1] came to 3.1 mg/kg. In data set [2], this compound registered an LD50 greater than 5000 mg/kg.

Consider `CO[C@@H]1CCN(C(=O)c2cc(-c3ccccc3)c(=O)n3ccc4ccsc4c23)C1` [R, (R)-3-methoxy-1-[(7-oxo-8-phenyl-7H-thieno[2,3-a]-quinolizin-10-yl)carbonyl]pyrrolidine], for which, in data set [1], the ED50 is 0.17 mg/kg. Besides, the LD50 in data set [2] worked out at 1250 mg/kg.

Take `CO[C@H]1CCN(C(=O)c2cc(-c3ccccc3)c(=O)n3ccc4ccsc4c23)C1` [S, (S)-3-methoxy-1-[(7-oxo-8-phenyl-7H-thieno[2,3-a]-quinolizin-10-yl)carbonyl]pyrrolidine]: in data set [1], the ED50 is 0.87 mg/kg. Also, the LD50 in data set [2] amounted to 5000 mg/kg.

Regarding `COC[C@@H]1CCCN1C(=O)c1cc(-c2ccccc2)c(=O)n2c1-c1cc(Cl)ccc1CC2` [T, (S)-1-[(10-Chloro-6,7-dihydro-4-oxo-3-phenyl-4H-benzo[a]quinolizin-1-yl)carbonyl]-2-(methoxymethyl)pyrrolidine], the ED50 in data set [1] was 3.8 mg/kg. For the same compound, the LD50 in data set [2] was greater than 5000 mg/kg.

For `COC1CCN(C(=O)c2cc(-c3ccccc3)c(=O)n3c2-c2sccc2CC3)C1` (centres unmarked) [U, 1-[(4,5-Dihydro-7-oxo-8-phenyl-7H-thieno[2,3-a]quinolizin-10-yl)carbonyl]-3-methoxypyrrolidine], in data set [1], the ED50 came to 2.7 mg/kg. In addition, the LD50 in data set [2] was greater than 5000 mg/kg.

Turning to `COC1CN(C(=O)c2cc(-c3ccccc3)c(=O)n3ccc4ccsc4c23)C1` [V, 3-Methoxy-1-[(7-oxo-8-phenyl-7H-thieno[2,3-a]quinolizin-10-yl)carbonyl]azetidine], in data set [1], the ED50 was 0.13 mg/kg. The compound also came in with an LD50 in data set [2] greater than 5000 mg/kg.

Turning to `O=C(c1cc(-c2ccccc2)c(=O)n2ccc3ccc(Cl)cc3c12)N1CCC[C@@H]1CO` [W, (R)-1-[(10-Chloro-4-oxo-3-phenyl-4H-benzo[a]quinolizin-1-yl)carbonyl]-2-pyrrolidinemethanol], the ED50 in data set [1] was 0.51 mg/kg. Moreover, the LD50 in data set [2] is greater than 3000 mg/kg.

Take `COC[C@@H]1CCCN1C(=O)c1cc(-c2ccccc2)c(=O)n2ccc3ccc(Cl)cc3c12` [X, (S)-1-[(10-Chloro-4-oxo-3-phenyl-4H-benzo[a]quinolizin-1-yl)carbonyl]-2-(methoxymethyl)pyrrolidine]: the ED50 in data set [1] worked out at 1.1 mg/kg. The same compound had an LD50 in data set [2] of 5000 mg/kg.

For `COC[C@H]1CCCN1C(=O)c1cc(-c2ccccc2)c(=O)n2ccc3ccc(Cl)cc3c12` [Y, (R)-1-[(10-Chloro-4-oxo-3-phenyl-4H-benzo[a]quinolizin-1-yl)carbonyl]-2-(methoxymethyl)pyrrolidine], in data set [1], the ED50 was found to be 0.41 mg/kg. For the same compound, the LD50 in data set [2] is 5000 mg/kg.
